The source of these data is PMC11470957, “Principles of paralog-specific targeted protein degradation engaging the C-degron E3 KLHDC2” (Nature Communications, 2024).

The structures appear in SMILES notation. Several values for one entry are separate records, joined by “and”; a condition that tells them apart may be missing. Equal entries are not always repeated.

In one assay the target is BRD2 (Homo sapiens, UniProt P25440). Kind of assay: Western blot of BRD2 levels after cellular dosing. (Immunoblotting shows a protein as a band on a membrane.)
BRD2, sequence (P25440 whole entry, the tested form may be a part): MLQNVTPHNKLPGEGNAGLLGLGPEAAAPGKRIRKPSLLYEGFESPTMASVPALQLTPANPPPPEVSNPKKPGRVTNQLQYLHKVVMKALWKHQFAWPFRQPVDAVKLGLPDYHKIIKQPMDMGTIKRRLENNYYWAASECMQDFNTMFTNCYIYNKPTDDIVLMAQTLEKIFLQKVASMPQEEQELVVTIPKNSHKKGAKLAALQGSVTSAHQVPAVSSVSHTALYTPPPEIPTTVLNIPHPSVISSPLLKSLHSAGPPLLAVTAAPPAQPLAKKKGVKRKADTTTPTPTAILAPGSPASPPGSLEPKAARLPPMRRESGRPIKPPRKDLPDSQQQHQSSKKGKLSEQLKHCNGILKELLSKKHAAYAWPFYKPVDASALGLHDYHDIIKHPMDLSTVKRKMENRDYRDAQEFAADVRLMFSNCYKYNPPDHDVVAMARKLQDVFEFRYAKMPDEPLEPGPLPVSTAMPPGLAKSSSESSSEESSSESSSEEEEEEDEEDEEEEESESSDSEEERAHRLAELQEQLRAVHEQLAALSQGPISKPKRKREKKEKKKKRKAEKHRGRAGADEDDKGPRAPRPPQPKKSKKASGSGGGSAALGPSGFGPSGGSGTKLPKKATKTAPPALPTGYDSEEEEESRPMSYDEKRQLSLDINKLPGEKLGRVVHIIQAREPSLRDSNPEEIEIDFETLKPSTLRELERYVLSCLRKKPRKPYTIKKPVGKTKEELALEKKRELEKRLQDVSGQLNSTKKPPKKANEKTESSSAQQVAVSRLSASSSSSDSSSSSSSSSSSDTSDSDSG
The test system of assay [1] is BD2 domain from BRD2, BRD3, or BRD4 / neddylated CRL2^KLHDC2. Kind of assay: Pulse-chase PROTAC-dependent ubiquitylation of BRD BD2 domains by neddylated CRL2^KLHDC2. To be noted: neddylated CRL2^KLHDC2 not subject to autoinhibition; Fig 3e.

As to `Cc1sc2c(c1C)C(c1ccc(Cl)cc1)=N[C@@H](CC(=O)N1CCN(CCOc3cccc4ccc(-c5nc(CC(=O)NCC(=O)O)cs5)cc34)CC1)c1nnc(C)n1-2` [SJ46421], the “BRD2 level, Western blot quantification (DMSO = 100)” value on BRD2 (Fig 6b, KO/Rescue, 5 uM) is 112.267 and 101.949; on BRD2 (Fig 6b, U2OS, 5 uM), 136.72 and 118.225; at BRD2 (Fig S6a, 293T cells, 2.5 uM), 72.5135 and 88.7213; on BRD2 (Fig S6a, 293T cells, 5 uM), 75.5009 and 85.1412; at BRD2 (Fig S6b, MDA-MB468 Cells, 10 uM), 62.2331 and 83.5917. In addition, the “polyubiquitylation of the BD2 domain from BRD2, BRD3, or BRD4” value in assay [1] is recorded as “able to promote polyubiquitylation”.
